Our source for the Ki values is BindingDB's records for doi:10.1016/j.bmcl.2003.10.074 (University of Kentucky, 2004).

The experiment in a line: Binding affinity towards blood brain barrier choline transporter at 10 uM using rat brain.
In the case of `CCCC[n+]1ccccc1` [1-Butyl-pyridinium], the Ki – broadly, the dissociation constant of the complex between target and ligand, obtained from inhibition or displacement – was 250 µM.
`CCCCCCCCCC[n+]1cccc([C@@H]2CCCN2C)c1` [1-Decyl-3-((S)-1-methyl-pyrrolidin-2-yl)-pyridinium; iodide]: the affinity corresponds to a Ki of 27 µM.
As to `CCCCCCCC[n+]1ccccc1` [1-Octyl-pyridinium; iodide], affinity was put at a Ki of 250 µM.
`CCCCCCCC[N+](C)(C)CCO` [(2-Hydroxy-ethyl)-dimethyl-octyl-ammonium] registered a Ki of 10 µM.
`CCCCCCCC[n+]1cccc([C@@H]2CCCN2C)c1` [(S)-3-(1-methylpyrrolidin-2-yl)-1-octylpyridinium iodide]: the affinity corresponds to a Ki of 49 µM.
